Test system: whole blood from subjects with Type 1 Diabetes
Test: Whole blood IP-10 release assay, fine mapping of preproinsulin epitope (Example 3)
Format: cell-based, human
Conditions: peptide 10 μM; average of 4 subjects with T1D; FIG. 1A-1C
From the text: The leader sequence of the preproinsulin epitope was fine mapped with lys-substituted peptides and C- and N-terminal truncations. […] Without wishing to be bound by any theory, a therapeutic and/or diagnostic peptide in accordance with the present disclosure may be selected to avoid CD8 activity but ensure that CD4 T cells were targeted. The data are the averages of 4 subjects whole blood IP-10 release measured as fold change over medium alone without peptide.
Whole blood was collected from 4 subjects with Type 1 Diabetes aged between 29 and 45-years old. […] In whole blood assays using fresh heparinized blood incubated with peptide (final concentration 10 μM) in phosphate buffered saline (PBS) and DMSO in 96-well round-bottom plates. Peptides (purity by LC-MS >80%) were truncations or lysine-substituted variants of a sequence in preproinsulin shown to be immunogenic in previous studies comparing peptides spanning this polypeptide. […] Assay plates were run on the Luminex MAGPIX magnetic plate reader. The upper limit of quantitation is 10,000 pg/mL and the lower limit of detection is 3.2 pg/mL. The Fold Change of cytokine concentrations from incubations with individual peptides was calculated by dividing the cytokine concentration from the individual peptide incubations by the cytokine concentration of incubations with PBS and DMSO (NIL) on the same assay plates. […]

LPLLALLAL [SEQ ID NO: 76]
bioactivity in whole blood IP-10 release assay (fold change over medium alone), in words: suggests this is an epitope for CD8 T cells
